We go through eight compounds from patent publication US20230391772A1, “METHODS AND COMPOSITIONS FOR TARGETED PROTEIN DEGRADATION” (Ranok Therapeutics (Hangzhou) Co. Ltd., priority 2020, published 2023).

Assay [1] deals with MIA PaCa-2 human pancreatic carcinoma. As to the kind of experiment: MIA PaCa-2 CCK-8 proliferation assay. The assay is classed as cell-based. The conditions noted are these: Homo sapiens, MIA PaCa-2, 72 h, MIA PaCa-2 cells. The method, boiled down: (§1)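 KRAS(G12C) lines were used: MIA PaCa-2 with 2 copies, and NCI-H358 and NCI-H23 with 1 copy each. Cells were treated with 3-fold compound dilutions from 20 μM to 1.02 nM, and proliferation was read by CCK-8 absorbance. % inhibition was calculated against DMSO-treated cells after subtracting the cell-free medium blank.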
For orientation: Tetrazolium assays rely on reduction of a dye to a coloured formazan, in cell work by metabolically active cells.

The target in assay [2] is T1, HSP90a protein (Homo sapiens, UniProt P07900).
T1 construct: purchased BPS Bioscience 50298
Kind of assay: HSP90α-binding fluorescent polarization (FP) assay, FITC-geldanamycin probe. The conditions noted are these: FP competition with FITC-geldanamycin, 5 nM, 120 min at 25° C. As for the experimental part:
HSP90α-Binding Fluorescent Polarization (FP) Assay
Binding of test compounds to HSP90a protein was measured by fluorescent polarization (FP) using the HSP90a (N-terminal) Assay Kit (BPS Bioscience, #50298), following the manufacturer's instructions, except as noted. Fluorescently labeled HSP90-binding compounds, either the provided FITC-geldanamycin (5 nM final concentration) or RNK04010, a triazolone-based HSP90 binding small molecule labeled with BODIPY through a piperizine-phenyl linker (5 nM final concentration) were employed. A 2.5-fold serial dilution of each test compound ranging from 20 μM to 5.2 nM was assayed for binding to HSP90a. After the final step of adding HSP90a protein to each assay well, plates were mixed by brief shaking, incubated at 25° C. for 120 min for FITC-geldanamycin or 300 min for RNK04010, and fluorescence was measured using a PerkinElmer EnVision Plate Reader.

Assay [3] relates to NCI-H358 human non-small cell lung cancer. Kind of assay: NCI-H358 CCK-8 proliferation assay. The format is cell-based. The conditions noted are these: NCI-H358 cells, 72 hr. Put shortly:
as §1

Assay [4] concerns the target T2, KRAS(G12C) (Homo sapiens, UniProt P01116, G12C). Kind of assay: KRAS(G12C) Western blot protein degradation assay in MIA PaCa-2 cells. The assay is classed as cell-based. Also noted: host or cells: LU65A. The conditions noted are these: 48 hr; for inhibition at 0.1562 µM: 156.2 nM; for inhibition at 0.3125 µM: 312.5 nM; for inhibition at 0.625 µM: 625 nM; for inhibition at 1.25 µM: 1250 nM; for inhibition at 2.5 µM: 2500 nM; for inhibition at 5 µM: 5000 nM; for inhibition at 10 µM: 10,000 nM.

Assay [5] addresses T2, KRAS(G12C). Kind of assay: KRAS(G12C)/SOS1 homogeneous time-resolved fluorescence (HTRF) assay. The following applies: absence of GTP, 4° C. for 3 hr, read-out: KRAS (G12C) binding. Also noted: purchased Cisbio 63ADK000CB16PEG. The method, boiled down:
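Three-hour incubation at 4 °C of 3-fold compound dilutions (lowest 1.02 nM) with KRAS(G12C), SOS1 and detection reagents, GTP absent. Disruption of the KRAS(G12C)/SOS1 complex detected by time-resolved fluorescence.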
For orientation: In TR-FRET formats the signal depends on donor and acceptor labels being close together.

T2 sequence (P01116 1-188 isoform P01116-2 G12C): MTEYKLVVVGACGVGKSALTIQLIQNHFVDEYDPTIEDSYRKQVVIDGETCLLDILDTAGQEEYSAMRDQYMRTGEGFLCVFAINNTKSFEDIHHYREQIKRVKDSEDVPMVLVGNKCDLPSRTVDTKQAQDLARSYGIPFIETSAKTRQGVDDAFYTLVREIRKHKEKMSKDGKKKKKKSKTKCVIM

Turning to `CCC(=O)N1CCN(c2nc(OCC3CCN(C(=O)C4CCN(Cc5ccc(-n6c(O)nnc6-c6cc(C(C)C)c(O)cc6O)cc5)CC4)CC3)nc3c2CCN(c2cccc4cccc(Cl)c24)C3)C[C@@H]1CC#N` [Compound 147, (S)-2-(4-(7-(8-chloronaphthalen-1-yl)-2-((1-(1-(4-(3-(2,4-dihydroxy-5-isopropylphenyl)-5-hydroxy-4H-1,2,4-triazol-4-yl)benzyl)piperidine-4-carbonyl)piperidin-4-yl)methoxy)-5,6,7,8-tetrahydropyrido[3,4-d]pyrimidin-4-yl)-1-propionylpiperazin-2-yl)acetonitrile], the EC50 in assay [1] and in assay [3] was 0.1 to 1 µM each time. For the same compound, the IC50 in assay [2] was < 0.1 µM.
As to `C=C(F)C(=O)N1CCN(c2nc(OC[C@@H]3CCN(C(=O)C4CCN(Cc5ccc(-n6c(O)nnc6-c6cc(C(C)C)c(O)cc6O)cc5)CC4)C3)nc3c2CCN(c2cccc4cccc(Cl)c24)C3)C[C@@H]1CC#N` [Compound 145, 2-((S)-4-(7-(8-chloronaphthalen-1-yl)-2-(((R)-1-(1-(4-(3-(2,4-dihydroxy-5-isopropylphenyl)-5-hydroxy-4H-1,2,4-triazol-4-yl)benzyl)piperidine-4-carbonyl)pyrrolidin-3-yl)methoxy)-5,6,7,8-tetrahydropyrido[3,4-d]pyrimidin-4-yl)-1-(2-fluoroacryloyl)piperazin-2-yl)acetonitrile, acetic acid], the half-maximal effective concentration (EC50) in assay [1] and in assay [3] was 0.1 to 1 µM in each case. In addition, the IC50 in assay [2] lay in the range of 0.1 to 1 µM.
On to `C=CC(=O)N1CCN(c2nc(OC[C@@H]3CCCN3C(=O)C3CCN(Cc4ccc(-n5c(O)nnc5-c5cc(C(C)C)c(O)cc5O)cc4)CC3)nc3c2CCN(c2cccc4cccc(Cl)c24)C3)C[C@@H]1CC#N` [Compound 139, 2-((S)-1-acryloyl-4-(7-(8-chloronaphthalen-1-yl)-2-(((S)-1-(1-(4-(3-(2,4-dihydroxy-5-isopropylphenyl)-5-hydroxy-4H-1,2,4-triazol-4-yl)benzyl)piperidine-4-carbonyl)pyrrolidin-2-yl)methoxy)-5,6,7,8-tetrahydropyrido[3,4-d]pyrimidin-4-yl)piperazin-2-yl)acetonitrile], for which the EC50 (in general, the midpoint of the concentration-response curve) in assay [1] is > 1 µM. In assay [2], the IC50 lay within 0.1 to 1 µM. In addition, in assay [4], the inhibition (as a rule, the share of the control response that was lost under treatment) at 0.1562 µM is < 33%; the inhibition at 0.3125 µM was < 33%; the inhibition at 0.625 µM was < 33%; the inhibition at 1.25 µM was < 33%. In assay [4], the inhibition at 2.5 µM is < 33%, the inhibition at 5 µM was < 33% and the inhibition at 10 µM was < 33%. In assay [3], this compound had an EC50 of 0.1 to 1 µM. For the same compound, the IC50 in assay [5] was > 1 µM.
As to `C=C(F)C(=O)N1CCN(c2nc(OC[C@@H]3CCN(C(=O)C4CCN(Cc5ccc(-n6c(C(=O)NCC(F)(F)F)nnc6-c6cc(C(C)C)c(O)cc6O)cc5)CC4)C3)nc3c2CCN(c2cccc4cccc(Cl)c24)C3)C[C@@H]1CC#N` [Compound 168, 4-(4-((4-((R)-3-(((7-(8-chloronaphthalen-1-yl)-4-((S)-3-(cyanomethyl)-4-(2-fluoroacryloyl)piperazin-1-yl)-5,6,7,8-tetrahydropyrido[3,4-d]pyrimidin-2-yl)oxy)methyl)pyrrolidine-1-carbonyl)piperidin-1-yl)methyl)phenyl)-5-(2,4-dihydroxy-5-isopropylphenyl)-N-(2,2,2-trifluoroethyl)-4H-1,2,4-triazole-3-carboxamide], the EC50 in assay [1] was < 0.1 µM. The compound further gave an IC50 in assay [2] of 0.1 to 1 µM. For the same compound, in assay [4], the inhibition at 0.1562 µM was < 33%, the inhibition at 0.3125 µM was < 33%, the inhibition at 0.625 µM is < 33% and the inhibition at 1.25 µM was in the range of 33 to 66%. Further, in assay [4], the inhibition at 2.5 µM fell in the range of 33 to 66%, the inhibition at 5 µM was in the range of 33 to 66% and the inhibition at 10 µM was 33 to 66%.
Regarding `C=C(F)C(=O)N1CCN(c2nc(OC[C@@H]3CCCN3C(=O)C3CCN(Cc4ccc(-n5c(O)nnc5-c5cc(C(C)C)c(O)cc5O)cc4)CC3)nc3c2CCN(c2cccc4cccc(Cl)c24)C3)C[C@@H]1CC#N` [Compound 144, 2-((S)-4-(7-(8-chloronaphthalen-1-yl)-2-(((S)-1-(1-(4-(3-(2,4-dihydroxy-5-isopropylphenyl)-5-hydroxy-4H-1,2,4-triazol-4-yl)benzyl)piperidine-4-carbonyl)pyrrolidin-2-yl)methoxy)-5,6,7,8-tetrahydropyrido[3,4-d]pyrimidin-4-yl)-1-(2-fluoroacryloyl)piperazin-2-yl)acetonitrile], the IC50 in assay [2] is 0.1 to 1 µM. In assay [3], the EC50 is > 1 µM.
`CCC(=O)N1CCN(c2nc(OCC3CN(C(=O)C4CCN(Cc5ccc(-n6c(O)nnc6-c6cc(C(C)C)c(O)cc6O)cc5)CC4)C3)nc3c2CCN(c2cccc4cccc(Cl)c24)C3)C[C@@H]1CC#N` [Compound 146, (S)-2-(4-(7-(8-chloronaphthalen-1-yl)-2-((1-(1-(4-(3-(2,4-dihydroxy-5-isopropylphenyl)-5-hydroxy-4H-1,2,4-triazol-4-yl)benzyl)piperidine-4-carbonyl)azetidin-3-yl)methoxy)-5,6,7,8-tetrahydropyrido[3,4-d]pyrimidin-4-yl)-1-propionylpiperazin-2-yl)acetonitrile]: in assay [2], the IC50 was in the range of 0.1 to 1 µM. In addition, the EC50 in assay [3] is 0.1 to 1 µM.
Consider `CC(C)c1cc(-c2nnc(O)n2-c2ccc(CN3CCN(C4CCN(c5nc6c(c(N7CCN(C(=O)C(F)(F)F)[C@@H](CC#N)C7)n5)CCN(c5cccc7cccc(Cl)c57)C6)CC4)CC3)cc2)c(O)cc1O` [Compound 136, (S)-2-(4-(7-(8-chloronaphthalen-1-yl)-2-(4-(4-(4-(3-(2,4-dihydroxy-5-isopropylphenyl)-5-hydroxy-4H-1,2,4-triazol-4-yl)benzyl)piperazin-1-yl)piperidin-1-yl)-5,6,7,8-tetrahydropyrido[3,4-d]pyrimidin-4-yl)-1-(2,2,2-trifluoroacetyl)piperazin-2-yl)acetonitrile], for which the IC50 in assay [2] was > 1 µM. In assay [3], this compound displayed an EC50 of 0.1 to 1 µM.
On to `C=C(F)C(=O)N1CCN(c2nc(N3CCN(Cc4ccc(-n5c(O)nnc5-c5cc(CC)c(O)cc5O)cc4)CC3)nc3c2CCN(c2cccc4cccc(Cl)c24)C3)C[C@@H]1CC#N` [Compound 143, (S)-2-(4-(7-(8-chloronaphthalen-1-yl)-2-(4-(4-(3-(5-ethyl-2,4-dihydroxyphenyl)-5-hydroxy-4H-1,2,4-triazol-4-yl)benzyl)piperazin-1-yl)-5,6,7,8-tetrahydropyrido[3,4-d]pyrimidin-4-yl)-1-(2-fluoroacryloyl)piperazin-2-yl)acetonitrile], for which the IC50 in assay [2] was > 1 µM. Besides, in assay [3], the EC50 was > 1 µM.
